{"source": "PubChem BioAssay AID330", "about": "(DTP/NCI, 2004)", "tested_on": "P388 leukemia ip, CD2F1 mice, survival T/C", "test": "NCI In Vivo Anticancer Drug Screen. Data for tumor model P388 Leukemia (intraperitoneal) in CD2F1 (CDF1) mice", "conditions": "endpoint: median survival time, higher = longer survival", "summary_of_the_method": "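Mice carrying the transplanted tumor received test compound or vehicle. Survival was recorded in each group, and the value is the treated-group measurement divided by that of the vehicle-treated control group.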", "key": {"[1]": {"conditions": "dose: 100.0 mg/kg/injection, schedule: Q01DX009 (ip), vehicle: saline with Tween-80"}, "[2]": {"conditions": "dose: 200.0 mg/kg/injection, schedule: Q01DX009 (ip), vehicle: saline with Tween-80"}, "[3]": {"conditions": "dose: 400.0 mg/kg/injection, schedule: Q01DX009 (ip), vehicle: saline with Tween-80"}, "[4]": {"conditions": "dose: 50.0 mg/kg/injection, schedule: Q01DX009 (ip), vehicle: saline with Tween-80"}}, "note": "Several values for one entry are separate records, joined by “and”; a condition that tells them apart may be missing. Identical values can stand only once. Toxic doses and inconclusive results are not listed."}
{"smiles": "CCOC(=O)NC(C)(C)CN(C(=O)OCC)c1ccccc1", "values": [{"measurement": "T/C", "setting": "[1]", "value": "94 % of control"}, {"measurement": "T/C", "setting": "[2]", "value": "116 % of control"}, {"measurement": "T/C", "setting": "dose: 200.0 mg/kg/injection, schedule: Q04DX003 (ip), vehicle: saline with Tween-80", "value": "95 % of control"}, {"measurement": "T/C", "setting": "[3]", "value": "116 % of control"}, {"measurement": "T/C", "setting": "dose: 400.0 mg/kg/injection, schedule: Q04DX003 (ip), vehicle: saline with Tween-80", "value": "104 % of control"}]}
{"smiles": "COc1ccc2c(c1OC)CC(C(=O)O)=C2C", "values": [{"measurement": "T/C", "setting": "dose: 50.0 mg/kg/injection, schedule: Q01DX005 (ip), vehicle: saline with Tween-80", "value": "99 % of control"}, {"measurement": "T/C", "setting": "dose: 100.0 mg/kg/injection, schedule: Q01DX005 (ip), vehicle: saline with Tween-80", "value": "94 % of control"}, {"measurement": "T/C", "setting": "dose: 200.0 mg/kg/injection, schedule: Q01DX005 (ip), vehicle: saline with Tween-80", "value": "99 % of control"}]}
{"smiles": "CCCCCCC(C)N=[N+]([O-])CC(C)OC(C)=O", "note": "(configuration not stated)", "values": [{"measurement": "T/C", "setting": "dose: 10.0 mg/kg/injection, schedule: Q01DX009 (ip), vehicle: saline with Tween-80", "value": "121 % of control"}, {"measurement": "T/C", "setting": "dose: 20.0 mg/kg/injection, schedule: Q01DX009 (ip), vehicle: saline with Tween-80", "value": "105 % of control"}, {"measurement": "T/C", "setting": "dose: 40.0 mg/kg/injection, schedule: Q01DX009 (ip), vehicle: saline with Tween-80", "value": "121 % of control"}]}
{"smiles": "CC(=O)c1coc2c(c(C)nn2-c2ccccc2)c1=O", "values": [{"measurement": "T/C", "setting": "dose: 7.5 mg/kg/injection, schedule: Q01DX005 (ip), vehicle: Klucel (hydroxypropylcellulose) (HPC)", "value": "99 % of control"}, {"measurement": "T/C", "setting": "dose: 15.0 mg/kg/injection, schedule: Q01DX005 (ip), vehicle: Klucel (hydroxypropylcellulose) (HPC)", "value": "100 % of control"}, {"measurement": "T/C", "setting": "dose: 30.0 mg/kg/injection, schedule: Q01DX005 (ip), vehicle: Klucel (hydroxypropylcellulose) (HPC)", "value": "100 % of control"}]}
{"smiles": "C=c1[nH]c(=O)c(=C)[nH]c1=O", "values": [{"measurement": "T/C", "setting": "dose: 12.5 mg/kg/injection, schedule: Q01DX009 (ip), vehicle: other", "value": "94 % of control"}, {"measurement": "T/C", "setting": "dose: 25.0 mg/kg/injection, schedule: Q01DX009 (ip), vehicle: other", "value": "90 % of control"}, {"measurement": "T/C", "setting": "dose: 50.0 mg/kg/injection, schedule: Q01DX009 (ip), vehicle: other", "value": "99 % of control"}, {"measurement": "T/C", "setting": "dose: 100.0 mg/kg/injection, schedule: Q01DX009 (ip), vehicle: other", "value": "106 % of control"}]}
{"smiles": "CCn1c(Cl)c(/C=N\\Nc2ccc([N+](=O)[O-])cc2)c2ccccc21", "values": [{"measurement": "T/C", "setting": "dose: 100.0 mg/kg/injection, schedule: Q01DX001 (ip), vehicle: saline", "value": "94 % of control"}, {"measurement": "T/C", "setting": "dose: 200.0 mg/kg/injection, schedule: Q01DX001 (ip), vehicle: saline", "value": "95 % of control"}, {"measurement": "T/C", "setting": "dose: 400.0 mg/kg/injection, schedule: Q01DX001 (ip), vehicle: saline", "value": "95 % of control"}]}
{"smiles": "CC(C)(C(=O)O)c1ccc(C(=O)O)c(Br)c1", "values": [{"measurement": "T/C", "setting": "[4]", "value": "91 % of control"}, {"measurement": "T/C", "setting": "[1]", "value": "93 % of control"}, {"measurement": "T/C", "setting": "[2]", "value": "101 % of control"}]}
{"smiles": "COc1cccc2c1C(=O)c1c(O)c3c(c(O)c1C2=O)C[C@@](O)(/C(CO)=N/NC(=O)c1ccc(Cl)c(Cl)c1)C[C@@H]3OC1CC(N)C(O)C(C)O1", "note": "(some centres not stated)", "values": [{"measurement": "T/C", "setting": "dose: 0.12 mg/kg/injection, schedule: Q01DX009 (ip), vehicle: water", "value": "116 % of control"}, {"measurement": "T/C", "setting": "dose: 1.0 mg/kg/injection, schedule: Q01DX009 (ip), vehicle: water", "value": "153 % of control and 172 % of control"}, {"measurement": "T/C", "setting": "dose: 1.56 mg/kg/injection, schedule: Q04DX003 (ip), vehicle: water", "value": "108 % of control"}, {"measurement": "T/C", "setting": "dose: 2.0 mg/kg/injection, schedule: Q01DX009 (ip), vehicle: water", "value": "154 % of control and 176 % of control"}, {"measurement": "T/C", "setting": "dose: 2.0 mg/kg/injection, schedule: Q04DX003 (ip), vehicle: saline", "value": "99 % of control and 105 % of control and 118 % of control"}, {"measurement": "T/C", "setting": "dose: 3.13 mg/kg/injection, schedule: Q04DX003 (ip), vehicle: water", "value": "104 % of control and 121 % of control"}, {"measurement": "T/C", "setting": "dose: 4.0 mg/kg/injection, schedule: Q01DX009 (ip), vehicle: water", "value": "202 % of control and 205 % of control"}, {"measurement": "T/C", "setting": "dose: 4.0 mg/kg/injection, schedule: Q04DX003 (ip), vehicle: saline", "value": "108 % of control and 116 % of control"}, {"measurement": "T/C", "setting": "dose: 6.25 mg/kg/injection, schedule: Q04DX003 (ip), vehicle: water", "value": "155 % of control"}, {"measurement": "T/C", "setting": "dose: 8.0 mg/kg/injection, schedule: Q01DX009 (ip), vehicle: water", "value": "109 % of control and 241 % of control"}, {"measurement": "T/C", "setting": "dose: 25.0 mg/kg/injection, schedule: Q04DX003 (ip), vehicle: water", "value": "166 % of control and 167 % of control"}, {"measurement": "T/C", "setting": "dose: 100.0 mg/kg/injection, schedule: Q04DX003 (ip), vehicle: water", "value": "124 % of control"}, {"measurement": "T/C", "setting": "dose: 512.0 mg/kg/injection, schedule: Q04DX003 (ip), vehicle: saline", "value": "99 % of control"}, {"measurement": "T/C", "setting": "dose: 1024.0 mg/kg/injection, schedule: Q04DX003 (ip), vehicle: saline", "value": "90 % of control"}]}
{"smiles": "CCOC(=O)C1=C(C)NC(C)=C(C(=O)OCC)C1c1ccc(Cl)cc1", "values": [{"measurement": "T/C", "setting": "[4]", "value": "88 % of control"}, {"measurement": "T/C", "setting": "[1]", "value": "94 % of control"}, {"measurement": "T/C", "setting": "[2]", "value": "95 % of control"}, {"measurement": "T/C", "setting": "[3]", "value": "93 % of control"}]}
